Measurements as given in PubChem BioAssay (NCI).
Several values for one entry are separate records, joined by “and”; a condition that tells them apart may be missing. Equal values may be shown once.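 Protocol summary: plate cells (96-well), add compound at 5 concentrations, incubate 48 h, interpolate endpoints linearly. GI50 marks 50% less growth. Definition used: TGI = concentration required for complete inhibition of growth.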

What was measured:
Test in all cases: DTP human tumour cell line panel, 48 h
NCI/ADR-RES ovarian = tested on: NCI/ADR-RES ovarian
UACC-257 melanoma = tested on: UACC-257 melanoma
IGROV1 ovarian = tested on: IGROV1 ovarian
SK-OV-3 ovarian = tested on: SK-OV-3 ovarian
NCI-H226 lung = tested on: NCI-H226 lung
HS 578T breast = tested on: HS 578T breast
HL-60(TB) leukemia = tested on: HL-60(TB) leukemia
CCRF-CEM leukemia = tested on: CCRF-CEM leukemia
UO-31 renal = tested on: UO-31 renal
COLO 205 colon = tested on: COLO 205 colon

CC(=O)O[C@H](C[C@H](C(C)C)N(C)C(=O)[C@@H](NC(=O)[C@H]1CCCCN1C)C(C)C)c1nc(C(=O)N[C@@H](Cc2ccccc2)C[C@H](C)C(=O)O)c(CCOCc2ccccc2)s1 was tested. Which GI50 (NCI/ADR-RES ovarian) did it give?
The GI50 was 3 nM.

What about the TGI (NCI/ADR-RES ovarian) of the same molecule?
The TGI was 51.1 nM.

And the GI50 (UACC-257 melanoma)?
Its GI50 is under 1 nM.

And the TGI (UACC-257 melanoma)?
The TGI was over 10000 nM.

And the GI50 (IGROV1 ovarian)?
The GI50 was 1.09 nM.

And the TGI (IGROV1 ovarian)?
The TGI was over 10000 nM.

What about the GI50 (SK-OV-3 ovarian) of the same molecule?
Its GI50 is under 1 nM.

And the TGI (SK-OV-3 ovarian)?
Its TGI is over 10000 nM.

And the GI50 (NCI-H226 lung)?
The GI50 was under 1 nM.

What about the TGI (NCI-H226 lung) of the same molecule?
Its TGI is 3.13 nM.

What about the GI50 (HS 578T breast) of the same molecule?
Its GI50 is under 1 nM.

And the TGI (HS 578T breast)?
Its TGI is over 10000 nM.

And the GI50 (HL-60(TB) leukemia)?
Its GI50 is under 1 nM.

What about the TGI (HL-60(TB) leukemia) of the same molecule?
The TGI was under 1 nM.

What about the GI50 (CCRF-CEM leukemia) of the same molecule?
Its GI50 is under 1 nM.

And the TGI (CCRF-CEM leukemia)?
Its TGI is over 10000 nM.

What about the GI50 (UO-31 renal) of the same molecule?
Its GI50 is 4.86 nM.

And the TGI (UO-31 renal)?
Its TGI is over 10000 nM.

And the GI50 (COLO 205 colon)?
The GI50 was under 1 nM.

And the TGI (COLO 205 colon)?
Its TGI is under 1 nM.

For C[C@]12CC[C@H](O)C[C@H]1CC[C@@H]1[C@@H]2CC[C@]2(C)[C@@H](C3=CC(=O)OC3)CC[C@]12O, which TGI (NCI/ADR-RES ovarian) is on record?
The TGI was 573 nM.

And the TGI (UACC-257 melanoma)?
Its TGI is 2630 nM.

What about the TGI (IGROV1 ovarian) of the same molecule?
The TGI was 2820 nM.

What about the TGI (SK-OV-3 ovarian) of the same molecule?
Its TGI is 818 nM.

What about the TGI (NCI-H226 lung) of the same molecule?
The TGI was 2830 nM.

What about the TGI (HS 578T breast) of the same molecule?
Its TGI is over 100000 nM.

What about the GI50 (HL-60(TB) leukemia) of the same molecule?
Its GI50 is 39.1 nM.

What about the TGI (HL-60(TB) leukemia) of the same molecule?
Its TGI is 272 nM.

What about the TGI (CCRF-CEM leukemia) of the same molecule?
Its TGI is 44400 nM.

What about the TGI (UO-31 renal) of the same molecule?
The TGI was 4070 nM.

And the TGI (COLO 205 colon)?
The TGI was 2320 nM.

For COCCOc1cnc2ccn([C@H](C)c3nnc4c(F)cc(-c5cnn(C)c5)cn34)c(=O)c2c1, which GI50 (NCI/ADR-RES ovarian) is on record?
The GI50 was over 100000 nM.

What about the TGI (NCI/ADR-RES ovarian) of the same molecule?
The TGI was over 100000 nM.

What about the GI50 (UACC-257 melanoma) of the same molecule?
The GI50 was over 100000 nM.

What about the TGI (UACC-257 melanoma) of the same molecule?
The TGI was over 100000 nM.

What about the GI50 (IGROV1 ovarian) of the same molecule?
The GI50 was over 100000 nM.

What about the TGI (IGROV1 ovarian) of the same molecule?
Its TGI is over 100000 nM.

And the GI50 (SK-OV-3 ovarian)?
The GI50 was over 100000 nM.

What about the TGI (SK-OV-3 ovarian) of the same molecule?
Its TGI is over 100000 nM.

What about the GI50 (NCI-H226 lung) of the same molecule?
The GI50 was over 100000 nM.

And the TGI (NCI-H226 lung)?
Its TGI is over 100000 nM.

And the GI50 (HS 578T breast)?
The GI50 was 82700 nM.

What about the TGI (HS 578T breast) of the same molecule?
The TGI was over 100000 nM.

And the GI50 (HL-60(TB) leukemia)?
The GI50 was over 100000 nM.

And the TGI (HL-60(TB) leukemia)?
Its TGI is over 100000 nM.

And the GI50 (CCRF-CEM leukemia)?
The GI50 was over 100000 nM.

And the TGI (CCRF-CEM leukemia)?
Its TGI is over 100000 nM.

What about the GI50 (UO-31 renal) of the same molecule?
The GI50 was 70600 nM.

What about the TGI (UO-31 renal) of the same molecule?
The TGI was over 100000 nM.

What about the GI50 (COLO 205 colon) of the same molecule?
The GI50 was over 100000 nM.

And the TGI (COLO 205 colon)?
The TGI was over 100000 nM.

Which TGI (NCI/ADR-RES ovarian) does the source give for COc1ccc2c(c1)[C@@]13CCCC[C@H]1[C@@H](C2)N(C)CC3=O here?
Its TGI is 84400 nM.

And the TGI (UACC-257 melanoma)?
The TGI was 30500 nM.

What about the TGI (IGROV1 ovarian) of the same molecule?
The TGI was 32800 nM.

And the TGI (SK-OV-3 ovarian)?
Its TGI is 53900 nM.

What about the TGI (NCI-H226 lung) of the same molecule?
The TGI was 57900 nM.

What about the TGI (HS 578T breast) of the same molecule?
The TGI was 66600 nM.

And the TGI (HL-60(TB) leukemia)?
Its TGI is over 100000 nM.

What about the TGI (CCRF-CEM leukemia) of the same molecule?
Its TGI is 73600 nM.

What about the TGI (UO-31 renal) of the same molecule?
Its TGI is 32900 nM.

What about the TGI (COLO 205 colon) of the same molecule?
The TGI was 31200 nM.

With O=c1[nH]cnc2cccc(Cl)c12 as the molecule, how does the TGI (NCI/ADR-RES ovarian) read?
Its TGI is over 100000 nM.

And the TGI (UACC-257 melanoma)?
The TGI was over 100000 nM.

And the TGI (IGROV1 ovarian)?
The TGI was over 100000 nM.

And the TGI (SK-OV-3 ovarian)?
Its TGI is over 100000 nM.

And the TGI (NCI-H226 lung)?
Its TGI is over 100000 nM.

And the TGI (HS 578T breast)?
Its TGI is over 100000 nM.

And the TGI (HL-60(TB) leukemia)?
Its TGI is over 100000 nM.

And the TGI (CCRF-CEM leukemia)?
The TGI was over 100000 nM.

What about the TGI (UO-31 renal) of the same molecule?
The TGI was over 100000 nM.

And the TGI (COLO 205 colon)?
The TGI was over 100000 nM.

Which results are given for COc1cc2c(c(OC)n1)[C@]1(O)[C@H](O)[C@H](CN(C)C)[C@@H](c3ccccc3)[C@]1(c1ccc(C#N)cc1)O2?
GI50 (NCI/ADR-RES ovarian): 54.6 nM and 71 nM; TGI (NCI/ADR-RES ovarian): 3890 nM and 2930 nM; GI50 (UACC-257 melanoma): 41.7 nM and 42.7 nM; TGI (UACC-257 melanoma): 2450 nM and 2120 nM; GI50 (IGROV1 ovarian): 13.4 nM and < 10 nM; TGI (IGROV1 ovarian): 2440 nM and 1930 nM; GI50 (SK-OV-3 ovarian): 48.1 nM and 28.4 nM; TGI (SK-OV-3 ovarian): 7950 nM and 2100 nM; GI50 (NCI-H226 lung): 25.4 nM and < 13.1 nM; TGI (NCI-H226 lung): 4340 nM and 1280 nM; GI50 (HS 578T breast): 40.2 nM and 36.7 nM; TGI (HS 578T breast): 1970 nM and 1160 nM; GI50 (HL-60(TB) leukemia): < 10 nM; TGI (HL-60(TB) leukemia): 921 nM and 213 nM; GI50 (CCRF-CEM leukemia): < 10 nM; TGI (CCRF-CEM leukemia): > 52700 nM and 13600 nM; GI50 (UO-31 renal): 22.4 nM and 19.7 nM; TGI (UO-31 renal): 479 nM and 319 nM; GI50 (COLO 205 colon): 11.4 nM and < 11.1 nM; TGI (COLO 205 colon): 44.2 nM and 57.2 nM

With COc1ccc(OC)c2c(/C=C/c3ccc(N(C)C)cc3)ccnc12 as the molecule, how does the TGI (NCI/ADR-RES ovarian) read?
The TGI was over 10000 nM.

And the TGI (UACC-257 melanoma)?
Its TGI is over 10000 nM.

What about the TGI (IGROV1 ovarian) of the same molecule?
The TGI was over 10000 nM.

And the TGI (SK-OV-3 ovarian)?
Its TGI is over 10000 nM.

And the TGI (NCI-H226 lung)?
The TGI was over 10000 nM.

And the TGI (HS 578T breast)?
Its TGI is over 10000 nM.

What about the TGI (HL-60(TB) leukemia) of the same molecule?
The TGI was 3860 nM.

And the TGI (CCRF-CEM leukemia)?
Its TGI is 9280 nM.

And the TGI (UO-31 renal)?
Its TGI is over 10000 nM.

What about the TGI (COLO 205 colon) of the same molecule?
The TGI was over 10000 nM.

For COc1cc2c(cc1O)C1Cc3ccc(OC)c(O)c3C(C2)N1C (stereo unspecified), which TGI (NCI/ADR-RES ovarian) is on record?
Its TGI is over 100000 nM.

What about the TGI (UACC-257 melanoma) of the same molecule?
Its TGI is over 100000 nM.

What about the TGI (IGROV1 ovarian) of the same molecule?
The TGI was over 100000 nM.

And the TGI (SK-OV-3 ovarian)?
The TGI was over 100000 nM.

And the TGI (NCI-H226 lung)?
The TGI was over 100000 nM.

What about the TGI (HS 578T breast) of the same molecule?
The TGI was over 100000 nM.

What about the TGI (HL-60(TB) leukemia) of the same molecule?
Its TGI is over 100000 nM.

And the TGI (CCRF-CEM leukemia)?
The TGI was over 100000 nM.

And the TGI (UO-31 renal)?
The TGI was over 100000 nM.

And the TGI (COLO 205 colon)?
Its TGI is over 100000 nM.
